Assay results from patent US20240156802A1, “METHODS FOR TREATING DISORDERS AMELIORATED BY MUSCARINIC RECEPTOR ACTIVATION” (KARUNA THERAPEUTICS, INC., priority 2021, published 2024).

How the values were obtained:
[1] = 125/30 mg dose group in EMERGENT-1, day 28, ages 18-60, TDD 250 mg; cited from earlier work
[2] = 25-75 mg TID, 75-225 mg TDD; cited from earlier work
[3] = 26-week study of Alzheimer's disease; cited from earlier work
[4] = Phase 1b exploratory PK of xanomeline in healthy elderly subjects given KarXT; format: in vivo, human; settings: for blood levels in healthy elderly subjects compared with adults under 65: Cohorts 1 and 2, lower oral doses; for Cmax: human, plasma, oral
Description: (§1) The purpose of this Phase 1b clinical trial was to evaluate the safety and tolerability of KarXT in healthy elderly volunteers and to assess its potential efficacy and safety in dementia-related psychosis (DRP). In the Phase 1b trial, the various doses and ratios were evaluated for both xanomeline and trospium in healthy elderly volunteers using a flexible dosing protocol titrated over about 2 to 3 weeks. The maximum dose was reached on Day 12, 15, and 17 in Cohorts 1, 2, and 3, respectively. Dosing lasted a total of 14, 18, and 20 days, respectively. Each cohort consisted of 16 healthy elderly volunteers.
(§2) This was a Phase 1, randomized, double-blind, multiple-dose, adaptive-design study evaluating the safety, tolerability, and exploratory PK of KarXT in healthy elderly subjects. The study consisted of a screening period of up to 28 days. This inpatient investigative period included a treatment period and a post-treatment observation period. A follow-up visit was completed 7±3 days after administering the final dose of the study drug. For Cohort 1, the inpatient investigative period was up to 17 days, including admission, a treatment period of up to 14 days, and a 2-day post-treatment observation period. For Cohort 2, the inpatient investigative period was up to 21 days, including admission, a treatment period of up to 18 days, and a 2-day post-treatment observation period. For Cohort 3, the inpatient investigative period was up to 23 days, including admission, a treatment period of up to 20 days, and a 2-day post-treatment observation period.
Subjects assigned to active treatment in Cohorts 1 and 2 started treatment with a lead-in dose of KarXT for 2 days. Subjects assigned to active treatment in Cohort 3 started treatment with a lead-in dose of KarXT for 4 days. KarXT doses were increased beginning on Day 3 (or Day 5 for Cohort 3) according to cohort-specific plans (FIGURE S 1) to achieve the following final cohort-specific total daily dose (TDD) of KarXT, if tolerated: • Cohort 1: 200/40 mg • Cohort 2: 200/30 mg • Cohort 3: 150/20 mg
The assessment of adverse events, clinical laboratory samples, electrocardiograms (ECGs), vital signs (including orthostatic vital signs), urine output monitoring, Columbia-Suicide Severity Rating Scale (C-SSRS), serial PK sampling, and collecting saliva to measure saliva volume were performed at defined time points during the study.
Table 2 contains the xanomeline Cmax data collected on the final day of the dosing period for cohorts 1, 2, and 3 in the healthy elderly trial compared to day 28 (last day PK data was collected) in the EMERGENT-1 trial for a patient population of ages 18-60 inclusive.

[5] = Phase 1b safety and tolerability of KarXT in healthy elderly subjects (adverse events); format: in vivo, human; settings: 30 mg TDD versus 40 mg TDD, given with xanomeline, normal elderly volunteers
Description: as §1
as §2, with “For Cohort 3, the inpatient investigative period was up to 23 days, including admission, a treatment period of up to 20 days, and a 2-day post-treatment observation period.” left out

Cmax ([4]; Cohort 1, final day of dosing, average dose before PK 67 mg, average TDD 172 mg) [ng/mL] | Cmax ([4]; Cohort 2, final day of dosing, average dose before PK 61 mg, average TDD 156 mg) [ng/mL] | Cmax ([4]; Cohort 3, final day of dosing, average dose before PK 39 mg, average TDD 116 mg) [ng/mL] | mean plasma levels (Cmax) compared with EMERGENT-1 (200-250 mg xanomeline) ([4]; oral xanomeline about 100 to 200 mg per day, healthy elderly volunteers) | SMILES | mean Cmax of xanomeline [1] [ng/mL] | effect on schizophrenia [2] | dropout rate [3] [%] | blood levels in healthy elderly subjects compared with adults under 65 [4] | tolerability by trospium dose [5]
7.3 ± 2 | 14.2 ± 5.3 | 7.2 ± 2 | comparable to, or slightly higher than | CCCCCCOc1nsnc1C1=CCCN(C)C1 [Xanomeline, xanomeline] | 9.4 ± 1.5 | alleviated | 56 | higher blood levels | 
 |  |  |  | O=C(O[C@H]1C[C@H]2CC[C@@H](C1)[N+]21CCCC1)C(O)(c1ccccc1)c1ccccc1 [trospium, trospium chloride] |  |  |  | higher blood levels | performed better
